# Like-named read-outs stand apart in the source and are kept apart here.
# Tested on: Propionibacterium acnes ATCC 6919
# Experimental: The sample is then recovered onto agar and incubated 5-7 days until clear colonies are visible. […] The anti-P. acnes activity of various test treatments were compared. Anti-P. acnes activity was measured using the in vitro method described above. The test treatments comprised either 0.1 or 0.25 weight percent of succinic acid in reinforced clostridial media with and without the administration of 440 nm blue light. […] Non-control test samples were adjusted to a pH of 4.5.
compound,measurement,setting,value
"O=C(O)CCC(=O)O [Succinic Acid, Succinic acid (butanedioic acid)]",antimicrobial activity of the combination relative to the expected additive reduction,0.1% succinic acid + light: 6.7 log reduction vs additive 2.6 log reduction,"about 12,000 times"
same,reduction of P. acnes bacterial count,0.1% succinic acid combined with light,6.7 logs
same,Log 10 reduction vs Control Solution,"0.1% succinic acid in reinforced clostridial media, pH 4.5, no light",2.0 Log 10
same,reduction of P. acnes bacterial count,"0.1% succinic acid, no light, compared to untreated control solution",2 logs
same,Log 10 reduction vs Control Solution,"0.1% succinic acid, pH 4.5, + 440 nm blue light",>6.7 Log 10
same,antimicrobial activity of the combination relative to the expected additive reduction,0.25% succinic acid + light: 6.7 log reduction vs additive 6.2 log reduction,about 3 times
same,reduction of P. acnes bacterial count,0.25% succinic acid combined with light,6.7 logs
same,Log 10 reduction vs Control Solution,"0.25% succinic acid in reinforced clostridial media, pH 4.5, no light",5.6 Log 10
same,reduction of P. acnes bacterial count,"0.25% succinic acid, no light, compared to untreated control solution",5.6 logs
same,Log 10 reduction vs Control Solution,"0.25% succinic acid, pH 4.5, + 440 nm blue light",>6.7 Log 10

# From patent US10973789B2, “Compositions and methods for treating skin conditions using light and polycarboxylic acids” (Johnson & Johnson Consumer Inc., priority 2017, dated 2021)
